Assay results published in publication PMC10046377, “Inhibitors of the Oncogenic PA2G4-MYCN Protein-Protein Interface” (Cancers, 2023).

These compounds were tested against T1, PA2G4 protein (Homo sapiens, UniProt Q9UQ80) (assay: Surface plasmon resonance binding to recombinant PA2G4). Conditions: SPR, Biacore T200, 25 °C, biotinylated PA2G4.
T1 sequence (Q9UQ80 1-394): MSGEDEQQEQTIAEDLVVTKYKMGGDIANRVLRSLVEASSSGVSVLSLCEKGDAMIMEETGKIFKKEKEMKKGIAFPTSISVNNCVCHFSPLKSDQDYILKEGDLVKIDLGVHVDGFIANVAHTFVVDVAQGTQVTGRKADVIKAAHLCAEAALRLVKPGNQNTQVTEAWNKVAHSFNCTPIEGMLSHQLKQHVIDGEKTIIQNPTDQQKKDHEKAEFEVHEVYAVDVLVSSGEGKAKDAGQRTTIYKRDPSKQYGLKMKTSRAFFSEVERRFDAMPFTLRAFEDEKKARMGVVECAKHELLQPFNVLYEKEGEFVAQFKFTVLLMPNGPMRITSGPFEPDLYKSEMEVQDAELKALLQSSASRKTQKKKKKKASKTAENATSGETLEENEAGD
Set-up: PA2G4 protein construct was ordered from GenScript (Piscataway, NJ, USA) and cloned into a pET22b vector; host or cells: BL21 (DE3) E. coli
Method: PA2G4 protein construct was ordered from GenScript (Piscataway, NJ, USA) and cloned into a pET22b vector. The construct was expressed in BL21 (DE3) E. coli, which was transformed by adding 2 μL of DNA, as per the Addgene Bacterial Transformation Protocol (Addgene, Cambridge, MA, USA). A total of 250 μL of transformed cells were grown in Luria-Bertani (LB) agar, containing 100 μg/mL of ampicillin, overnight at 37 °C. Starting cultures were created by inoculating 100 mL of LB with several bacterial culture colonies, followed by an overnight shaking incubation at 125 rpm and 37 °C. The overnight culture was added (10 mL/L) to 2 L flasks of LB and incubated at 125 rpm and 37 °C until log phase growth was reached (OD600 = 0.6). Following incubation, the cell line was centrifuged at 4200 rpm for 30 min in 1 L bottles. The cell pellet was then resuspended in 25 mL of phosphate-buffered saline (PBS) and centrifuged again at 4200 rpm for 30 min.
Cell pellets were resuspended in 25 mL of Ni-IMAC buffer A (100 mM Tris (pH 8.0), 0.5 M NaCl, 1 mM TCEP), filtered through 22–25 μm Miracloth, and placed on ice. Filtered cells were lysed using the EmulsiFlex-C5 High-Pressure homogenizer (Avestin, Ottawa, ON, Canada), followed by high-speed centrifugation at 18,000 rpm for 20 min. The supernatant, containing the soluble cell lysate, was loaded onto a 5 mL His-Trap column (GE Healthcare Life Sciences, Buckinghamshire, UK) equilibrated in Ni-IMAC buffer A. An incremental gradient of Ni-IMAC buffer B (100 mM Tris pH 8.0, 0.5 M NaCl, 1 mM TCEP, and 1 M imidazole) was introduced. Eluted fractions were analysed by SDS-PAGE and pooled accordingly. Each protein sample was then loaded onto a HiPrep 26/10 Desalting column (GE Healthcare Life Sciences, Buckinghamshire, UK) and equilibrated into anion exchange buffer A (100 mM Tris pH 8.0, 50 mM NaCl, 1 mM TCEP). Samples were loaded onto the column and eluted fractions were analysed by SDS-PAGE and pooled accordingly.
Protein was loaded onto a 5 mL HiTrap Q (Sephrose-Q) anion exchange column (GE Healthcare Life Sciences, Buckinghamshire, UK) and equilibrated in anion exchange buffer A. Samples were loaded, eluted in the flow-through, and analysed using SDS-PAGE. Samples were pooled and concentrated using 10 kDa MWCO Ultra-4 centrifugal filters (Merck, Macquarie Park, NSW, Australia) and intermittent centrifugation at 4000 rpm. Protein samples were then purified using Size Exclusion Chromatography (SEC). Each sample was concentrated to […] using MWCO Ultra-4 centrifugal filters, then loaded onto a Superdex 75 16/60 SEC column (GE Healthcare Life Sciences, Buckinghamshire, UK) and equilibrated in SEC buffer (25 mM Hepes pH 7.7, 100 mM NaCl, 1 mM TCEP). Samples were eluted, analysed by SDS-PAGE, and concentrated to 10 mg/mL using 10 kDa MWCO Ultra-4 centrifugal filters, with intermitted centrifugation at 4000 rpm.
Recombinant PA2G4 was buffer exchanged into PBS buffer using an overnight dialysis at 4 °C. Protein was concentrated to 0.5 mg/mL and incubated for 3 h on ice with a 20:1 molar excess of EZ-Link Sulfo-NHS-LC-Biotin (Thermo Scientific, Melbourne, VIC, Australia). Biotinylated protein samples were isolated from excess biotin using a Superdex 200 10/300 SEC column (GE Healthcare Life Sciences, Buckinghamshire, UK). All SPR experiments were performed on a Biacore T200 instrument (GE Healthcare Life Sciences, Uppsala, Sweden), at 25 °C, in the presence of HEPES Buffered Saline (HBS) (20 mM […] (pH 7.5) 137 mM NaCl, 2.7 mM KCl, and 0.05% Tween 20). Streptavidin was coupled to a CM5 chip (GE Healthcare Life Sciences, Buckinghamshire, UK) using amine coupling. Biotinylated protein samples were then capture-coupled to the streptavidin, with flow cell 1 blocked as a reference.
Compounds were dissolved in 100% DMSO and diluted to 10 mM. […]

Row | Kd [µM] | Compound
1 | 14.9 | Cc1cccc(Oc2cc(N3CCC(C(=O)NCc4cccc(C(F)(F)F)c4)CC3)ncn2)c1C [#3567]
2 | 10.8 | Cc1cccc(Oc2cc(N3CCC(C(=O)NCc4cccc(Br)c4)CC3)ncn2)c1C [#5333]
3 | 13.5 | Cc1cccc(Oc2cc(N3CCC(C(=O)N[C@@H](C)CCc4ccccc4)CC3)ncn2)c1C [#5338]

Same assay, conditions: SPR, recombinant PA2G4

Row | Kd [µM] | Compound
4 | 14.9 | Cc1cccc(Oc2cc(N3CCC(C(=O)NCc4cccc(C(F)(F)F)c4)CC3)ncn2)c1C [#3567]
5 | 10.8 | Cc1cccc(Oc2cc(N3CCC(C(=O)NCc4cccc(Br)c4)CC3)ncn2)c1C [#5333]
6 | 13.5 | Cc1cccc(Oc2cc(N3CCC(C(=O)N[C@@H](C)CCc4ccccc4)CC3)ncn2)c1C [#5338]
